Reference: PubChem BioAssay (NCI)
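A five-concentration, 48-hour dose response in 96-well plates underlies each endpoint, interpolated linearly between surrounding concentrations. Definition used: TGI = concentration required for complete inhibition of growth.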

Assays:
Assay in all cases: inhibition of tumour cell growth, NCI panel, 48 h
[1] = system: 786-0 renal
[2] = system: A498 renal
[3] = system: A549 NSCLC
[4] = system: ACHN renal
[5] = system: BT-549 breast
[6] = system: CAKI-1 renal
[7] = system: CCRF-CEM leukemia
[8] = system: COLO 205 colon
[9] = system: DU-145 prostate
[10] = system: EKVX NSCLC
[11] = system: HCC-2998 colon
[12] = system: HCT-116 colon
[13] = system: HCT-15 colon
[14] = system: HL-60(TB) leukemia
[15] = system: HOP-62 NSCLC
[16] = system: HOP-92 NSCLC
[17] = system: HS 578T breast
[18] = system: HT29 colon
[19] = system: IGROV1 ovarian
[20] = system: K-562 leukemia
[21] = system: KM12 colon
[22] = system: LOX IMVI melanoma
[23] = system: M14 melanoma
[24] = system: MALME-3M melanoma
[25] = system: MCF7 breast
[26] = system: MDA-MB-231 breast
[27] = system: MDA-MB-435
[28] = system: MDA-N
[29] = system: MOLT-4 leukemia
[30] = system: NCI-H23 lung
[31] = system: NCI-H460 lung
[32] = system: NCI-H522 lung
[33] = system: NCI/ADR-RES ovarian
[34] = system: OVCAR-3 ovarian
[35] = system: OVCAR-4 ovarian
[36] = system: OVCAR-5 ovarian
[37] = system: OVCAR-8 ovarian
[38] = system: PC-3 prostate
[39] = system: RPMI-8226 leukemia
[40] = system: RXF 393 renal
[41] = system: SF-268 CNS
[42] = system: SF-295 CNS
[43] = system: SF-539 CNS
[44] = system: SK-MEL-2 melanoma
[45] = system: SK-MEL-28 melanoma
[46] = system: SK-MEL-5 melanoma
[47] = system: SK-OV-3 ovarian
[48] = system: SN12C renal
[49] = system: SNB-19 CNS
[50] = system: SNB-75 CNS
[51] = system: SR leukemia
[52] = system: SW-620 colon
[53] = system: T-47D breast
[54] = system: TK-10 renal
[55] = system: U251 CNS
[56] = system: UACC-257 melanoma
[57] = system: UACC-62 melanoma
[58] = system: UO-31 renal

**Q.** Which TGI [1] does the source give for `CC1=C(Cc2ccccc2)C(Cc2ccccc2)=C(C)S1=O` here?
**A.** 71 µM

**Q.** What about the TGI [2] of the same compound?
**A.** 63.7 µM

**Q.** What about the TGI [3] of the same compound?
**A.** > 100 µM

**Q.** What about the TGI [4] of the same compound?
**A.** > 100 µM

**Q.** And the TGI [5]?
**A.** 92.4 µM

**Q.** And the TGI [6]?
**A.** > 100 µM

**Q.** What about the TGI [7] of the same compound?
**A.** 49.9 µM

**Q.** And the TGI [8]?
**A.** 43.1 µM

**Q.** What about the TGI [9] of the same compound?
**A.** > 100 µM

**Q.** And the TGI [10]?
**A.** 46.9 µM

**Q.** What about the TGI [11] of the same compound?
**A.** 42.4 µM

**Q.** What about the TGI [12] of the same compound?
**A.** 74.7 µM

**Q.** What about the TGI [13] of the same compound?
**A.** > 100 µM

**Q.** And the TGI [14]?
**A.** 34.6 µM

**Q.** What about the TGI [15] of the same compound?
**A.** > 100 µM

**Q.** And the TGI [16]?
**A.** > 100 µM

**Q.** And the TGI [17]?
**A.** > 100 µM

**Q.** And the TGI [18]?
**A.** 39.4 µM

**Q.** And the TGI [19]?
**A.** > 100 µM

**Q.** And the TGI [20]?
**A.** > 100 µM

**Q.** What about the TGI [21] of the same compound?
**A.** 36.5 µM

**Q.** And the TGI [22]?
**A.** 50.9 µM

**Q.** What about the TGI [23] of the same compound?
**A.** 46.3 µM

**Q.** What about the TGI [24] of the same compound?
**A.** > 100 µM

**Q.** What about the TGI [25] of the same compound?
**A.** 60 µM

**Q.** What about the TGI [26] of the same compound?
**A.** 52.3 µM

**Q.** And the TGI [27]?
**A.** 35.6 µM

**Q.** And the TGI [28]?
**A.** 71.2 µM

**Q.** What about the TGI [29] of the same compound?
**A.** 41.5 µM

**Q.** What about the TGI [30] of the same compound?
**A.** 95.7 µM

**Q.** And the TGI [31]?
**A.** 99.1 µM

**Q.** What about the TGI [32] of the same compound?
**A.** 78.8 µM

**Q.** And the TGI [33]?
**A.** 51.7 µM

**Q.** What about the TGI [34] of the same compound?
**A.** > 100 µM

**Q.** And the TGI [35]?
**A.** > 100 µM

**Q.** What about the TGI [36] of the same compound?
**A.** 73.2 µM

**Q.** And the TGI [37]?
**A.** > 100 µM

**Q.** What about the TGI [38] of the same compound?
**A.** 54.1 µM

**Q.** What about the TGI [39] of the same compound?
**A.** 54.4 µM

**Q.** And the TGI [40]?
**A.** 55.1 µM

**Q.** What about the TGI [41] of the same compound?
**A.** > 100 µM

**Q.** And the TGI [42]?
**A.** > 100 µM

**Q.** What about the TGI [43] of the same compound?
**A.** > 100 µM

**Q.** What about the TGI [44] of the same compound?
**A.** 35.1 µM

**Q.** What about the TGI [45] of the same compound?
**A.** > 100 µM

**Q.** And the TGI [46]?
**A.** 30.1 µM

**Q.** What about the TGI [47] of the same compound?
**A.** > 100 µM

**Q.** What about the TGI [48] of the same compound?
**A.** 84.1 µM

**Q.** And the TGI [49]?
**A.** > 100 µM

**Q.** What about the TGI [50] of the same compound?
**A.** 54.6 µM

**Q.** And the TGI [51]?
**A.** 53.2 µM

**Q.** And the TGI [52]?
**A.** > 100 µM

**Q.** What about the TGI [53] of the same compound?
**A.** 59.1 µM

**Q.** And the TGI [54]?
**A.** 76.2 µM

**Q.** What about the TGI [55] of the same compound?
**A.** > 100 µM

**Q.** And the TGI [56]?
**A.** 48.5 µM

**Q.** And the TGI [57]?
**A.** 34.3 µM

**Q.** What about the TGI [58] of the same compound?
**A.** > 100 µM
